Reference: patent US6737383B1, “Herbicidal oxadiazolidines” (priority 1999, dated 2004)

Legend:
[1] = test system: giant foxtail; assay: Test B pre/postemergence giant foxtail; assay type: in vivo, Setaria faberii
In short: (§1)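 Response is a visual 0-to-10 score relative to untreated plants, where 0 means no effect and 10 means complete control, taken twelve to sixteen days after application. Treatments went onto soil at planting and onto foliage of 1- to 4-leaf plants, using a surfactant-containing non-phytotoxic solvent.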

[2] = test system: rape; assay: Test B pre/postemergence rape; assay type: in vivo, Brassica napus
In short: as §1

[3] = test system: velvetleaf; assay: Test B pre/postemergence velvetleaf; assay type: in vivo, Abutilon theophrasti
In short: as §1

[4] = test system: sugar beet; assay: Test B pre/postemergence sugar beet; assay type: in vivo, Beta vulgaris
In short: as §1

[5] = test system: morningglory; assay: Test B pre/postemergence morningglory; assay type: in vivo, Ipomoea hederacea
In short: as §1

[6] = test system: pigweed; assay: Test B pre/postemergence pigweed; assay type: in vivo, Amaranthus retroflexus
In short: as §1

[7] = test system: duck salad; assay: Test B flood test duck salad; assay type: in vivo, Heteranthera limosa
In short: (§2)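 Plants were grown to the 2-leaf stage before treatment with test chemical, then held in a greenhouse for twelve to sixteen days. Injury was visually rated against untreated controls on a 0–10 scale, where 0 is no effect and 10 is complete control.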

[8] = test system: cocklebur; assay: Test B pre/postemergence cocklebur; assay type: in vivo, Xanthium strumarium
In short: as §1

[9] = test system: blackgrass; assay: Test B pre/postemergence blackgrass; assay type: in vivo, Alopecurus myosuroides
In short: as §1

[10] = test system: purple nutsedge; assay: Test B pre/postemergence purple nutsedge; assay type: in vivo, Cyperus rotundus
In short: as §1

[11] = test system: wheat; assay: Test B pre/postemergence wheat; assay type: in vivo, Triticum aestivum
In short: as §1

[12] = test system: surinam grass; assay: Test B pre/postemergence surinam grass; assay type: in vivo, Brachiaria decumbens
In short: as §1

[13] = test system: rice; assay: Test B flood test rice; assay type: in vivo, Oryza sativa
In short: as §2

[14] = test system: smallflower flatsedge; assay: Test B flood test smallflower flatsedge; assay type: in vivo, Cyperus difformis
In short: as §2

[15] = test system: crabgrass; assay: Test B pre/postemergence crabgrass; assay type: in vivo, Digitaria sanguinalis
In short: as §1

[16] = test system: corn; assay: Test B pre/postemergence corn; assay type: in vivo, Zea mays
In short: as §1

[17] = Postemergence, Rate 62 g/ha, scale 0 to 10, 0 is no effect, 10 is complete control
[18] = Postemergence, Rate 250 g/ha, scale 0 to 10, 0 no effect, 10 complete control
[19] = Preemergence, Rate 62 g/ha, scale 0 to 10 (0 no effect, 10 complete control)
[20] = Preemergence, Rate 125 g/ha, scale 0 to 10 (0 no effect, 10 complete control)
[21] = Preemergence, Rate 250 g/ha, scale of 0 to 10 where 0 is no effect and 10 is complete control
[22] = Preemergence, Rate 500 g/ha, scale 0 (no effect) to 10 (complete control)
[23] = Rate 125 g/ha, Postemergence, scale 0 to 10, 0 no effect, 10 complete control
[24] = Rate 500 g/ha, Postemergence, scale 0 to 10, 0 no effect, 10 complete control
[25] = Rate 62 g/ha, headed Pre-emergence (flood test species), scale 0 to 10 (0 no effect, 10 complete control)
[26] = Rate 125 g/ha, Pre-emergence, flood test species, scale 0 to 10 where 0 is no effect and 10 is complete control
[27] = Rate 250 g/ha, headed Pre-emergence (flood test species), scale 0 to 10 (0 no effect, 10 complete control)
[28] = Rate 500 g/ha, headed Pre-emergence (flood test species), scale 0 to 10 (0 no effect, 10 complete control)

CCN(Cc1ccccc1)C(=O)n1oc(=O)n(-c2ccccc2C)c1=O [Compound 71]
0: Giant foxtail plant response rating [1, 17] | Giant foxtail plant response rating [1, 18] | Giant foxtail plant response rating [1, 19] | Plant response rating, Giant foxtail [1, 20] | Plant response rating, Giant foxtail [1, 21] | Giant foxtail plant response rating [1, 22] | Giant foxtail plant response rating [1, 23] | Giant foxtail plant response rating [1, 24] | Rape plant response rating [2, 17] | Rape plant response rating [2, 18] | Rape plant response rating [2, 19] | Plant response rating, Rape [2, 20] | Plant response rating, Rape [2, 21] | Rape plant response rating [2, 22] | Rape plant response rating [2, 23] | Rape plant response rating [2, 24] | Velvetleaf plant response rating [3, 17] | Velvetleaf plant response rating [3, 18] | Velvetleaf plant response rating [3, 19] | Plant response rating, Velvetleaf [3, 20] | Plant response rating, Velvetleaf [3, 21] | Velvetleaf plant response rating [3, 22] | Velvetleaf plant response rating [3, 23] | Velvetleaf plant response rating [3, 24] | Sugarbeets plant response rating [4, 17] | Sugarbeets plant response rating [4, 18] | Sugarbeets plant response rating [4, 19] | Plant response rating, Sugarbeets [4, 20] | Plant response rating, Sugarbeets [4, 21] | Sugarbeets plant response rating [4, 22] | Sugarbeets plant response rating [4, 23] | Sugarbeets plant response rating [4, 24] | Morningglory plant response rating [5, 17] | Morningglory plant response rating [5, 18] | Morningglory plant response rating [5, 19] | Plant response rating, Morningglory [5, 20] | Plant response rating, Morningglory [5, 21] | Morningglory plant response rating [5, 22] | Morningglory plant response rating [5, 23] | Morningglory plant response rating [5, 24] | Redroot pigweed plant response rating [6, 17] | Redroot pigweed plant response rating [6, 18] | Redroot pigweed plant response rating [6, 19] | Plant response rating, Redroot pigweed [6, 20] | Plant response rating, Redroot pigweed [6, 21] | Redroot pigweed plant response rating [6, 22] | Redroot pigweed plant response rating [6, 23] | Redroot pigweed plant response rating [6, 24] | Ducksalad plant response rating [7, 25] | Ducksalad plant response rating [7, 26] | Ducksalad plant response rating [7, 27] | Plant response rating, Ducksalad [7, 28] | Cocklebur plant response rating [8, 17] | Cocklebur plant response rating [8, 18] | Cocklebur plant response rating [8, 19] | Plant response rating, Cocklebur [8, 20] | Plant response rating, Cocklebur [8, 21] | Cocklebur plant response rating [8, 22] | Cocklebur plant response rating [8, 23] | Cocklebur plant response rating [8, 24] | Blackgrass plant response rating [9, 17] | Blackgrass plant response rating [9, 18] | Blackgrass plant response rating [9, 19] | Plant response rating, Blackgrass [9, 20] | Plant response rating, Blackgrass [9, 21] | Blackgrass plant response rating [9, 22] | Blackgrass plant response rating [9, 23] | Blackgrass plant response rating [9, 24] | Nutsedge plant response rating [10, 17] | Nutsedge plant response rating [10, 18] | Nutsedge plant response rating [10, 19] | Plant response rating, Nutsedge [10, 20] | Plant response rating, Nutsedge [10, 21] | Nutsedge plant response rating [10, 22] | Nutsedge plant response rating [10, 23] | Nutsedge plant response rating [10, 24] | Wheat plant response rating [11, 17] | Wheat plant response rating [11, 18] | Wheat plant response rating [11, 19] | Plant response rating, Wheat [11, 20] | Plant response rating, Wheat [11, 21] | Wheat plant response rating [11, 22] | Wheat plant response rating [11, 23] | Wheat plant response rating [11, 24] | B. signalgrass plant response rating [12, 17] | B. signalgrass plant response rating [12, 18] | B. signalgrass plant response rating [12, 19] | Plant response rating, B. signalgrass [12, 20] | Plant response rating, B. signalgrass [12, 21] | B. signalgrass plant response rating [12, 22] | B. signalgrass plant response rating [12, 23] | B. signalgrass plant response rating ([12]; Rate 500 g/ha, Postemergence, scale of 0 to 10 where 0 is no effect and 10 is complete control) | Rice plant response rating [13, 25] | Rice plant response rating [13, 26] | Rice plant response rating [13, 27] | Plant response rating, Rice [13, 28] | S. Flatsedge plant response rating [14, 25] | S. Flatsedge plant response rating [14, 26] | S. Flatsedge plant response rating [14, 27] | Plant response rating, S. Flatsedge [14, 28] | Crabgrass plant response rating [15, 17] | Crabgrass plant response rating [15, 18] | Crabgrass plant response rating [15, 19] | Plant response rating, Crabgrass [15, 20] | Plant response rating, Crabgrass [15, 21] | Crabgrass plant response rating [15, 22] | Crabgrass plant response rating [15, 23] | Crabgrass plant response rating [15, 24] | Corn plant response rating [16, 17] | Corn plant response rating [16, 18] | Corn plant response rating [16, 19] | Plant response rating, Corn [16, 20] | Plant response rating, Corn [16, 21] | Corn plant response rating [16, 22] | Corn plant response rating [16, 23] | Corn plant response rating [16, 24]
